Counter-ions that a name gives are not always drawn. Like-named read-outs stand apart in the source and are kept apart here.
Key:
[1] = system: topoisomerase II; conditions: at a concentration which leads to 50% inhibition of cell proliferation; cited from earlier work
[2] = rabbit chronic experimental model, compared with doxorubicin; cited from earlier work
[3] = system: Human breast cancer cell line BT-474; experiment: Evaluation of combination effects in vitro (WST-1 proliferation, Combination Index by Pegram method); assay type: cell-based; conditions: for CI value (Combination Index) / D1 (concentration of test agent in combination required for fa): combination with Herceptin; for Df1 (concentration of test agent as single agent required for fa): fa 0.9, BT-474; for combination effect with Herceptin, overall evaluation by Combination Index: summary of Examples 1-3, BT-474
Protocol: The effects of the combined use were evaluated by calculating a Combination Index (CI) following a method of Pegram et al. (M. Pegram et al., Oncogene, 18, 2241-2251 (1999)). Human breast cancer cell line BT-474 (a cell line in which HER2 is highly expressed) was obtained from ATCC (American Type Culture Collection). In a medium comprising equal amount of D-MEM (Dulbecco's Modified Eagle Medium) medium and F-12 (Nutrient Mixture F-12) medium which further contains 2.5 mM L-glutamine, 10% bovine fetal serum (FCS) and 2.5 μg/ml amphotericin B, human breast cancer cell line BT-474 was subcultured. The culture was carried out in an incubator with 5% CO2 at 37° C. This medium was also used in the following experiments. HerceptinTM was dissolved in a dissolution solution attached thereto to prepare a 21 mg/ml stock solution. Thereafter, the solution was used after 2 fold serial dilutions with the medium. […] Doxorubicin hydrochloride was obtained from Kyowa Hakko Kogyo Co., Ltd. A 2 mg/ml solution was prepared by adding 5 ml of sterile water to a 10 mg vial, and the solution was used. Human breast cancer cell line BT-474 on subculture were subjected to a trypsin treatment, suspended in the medium, and seeded on a 96-well plate. The seeding density was set to be 1×10^4 cells/0.1 ml/well. After seeding, cells were cultured overnight in an incubator with 5% CO2 at 37° C. (Day 0). […] The experiments were conducted with n=3 for the agent-treated group, and with n=6 for the non-treated (control) group. Until Day 4, culture was conducted in an incubator with 5% CO2 at 37° C. […] Thereafter, culture was conducted in an incubator with 5% CO2 at 37° C. for 2-4 hours. Absorbance of the culture was then measured with MICROPLATE READER Model 3550-UV (BioRad), and living cell number was measured. […] CI and inhibition rate of proliferation fa were calculated as described above.

[4] = Cardiotoxicity test using monkey (combination with Herceptin); conditions: rhesus monkey, intravenous, amrubicin hydrochloride at two times the dosage of doxorubicin hydrochloride
Protocol: The administration of amrubicin hydrochloride at a dosage of two times of doxorubicin hydrochloride is carried out on the basis of therapeutic dosages of both agents.
Into vein of a rhesus monkey, is administered doxorubicin at a dose of 2.92 mg/kg (35 mg/m^2), 7-8 times with three weeks intervals.
Accordingly, the agent-administered groups are set to be as follows:
1) agent non-administered group
2) doxorubicin hydrochloride 2-4 mg/kg, iv, 8q3W
4) amrubicin hydrochloride 4-8 mg/kg, iv, 8q3W
On 140-150 days post initiation of the administration, the animal is dissected, and histopathological diagnosis of the heart is carried out. Judging from the comparison of impairment of the myocardial cells, cardiotoxicity is evaluated.

[5] = clinical use; cited from earlier work
[6] = in vitro experiment, Pegram et al. 1999; cited from earlier work
[7] = rhesus monkey, iv 2.92 mg/kg (35 mg/m^2), 7-8 times with three weeks intervals, 140-150 days post initiation; cited from earlier work
[8] = compared with amrubicin and amrubicinol; cited from earlier work
[9] = metabolite obtained by reduction in vivo; cited from earlier work
[10] = dosage ratio 40:1, fa 0.9, BT-474
[11] = dosage ratio 2:1, fa 0.9, BT-474
[12] = dosage ratio 2:1, fa 0.9, BT-474, CI<1 synergistic, CI=1 additive
[13] = dosage ratio 4:1, fa 0.9, BT-474
[14] = dosage ratio 8:1, fa 0.9, BT-474

Structure (SMILES) | stabilization of cleavable complex via topoisomerase II [1] | Df1 (concentration of test agent as single agent required for fa) [3] | combination effect with Herceptin, overall evaluation by Combination Index [3] | cardiotoxicity in combination with Herceptin [4] | CI value (Combination Index) [3, 11] | D1 (concentration of test agent in combination required for fa) [3, 11] | combination effect with Herceptin judged from CI value [3, 12] | also measured
CC(=O)[C@]1(N)Cc2c(O)c3c(c(O)c2[C@@H](O[C@H]2C[C@H](O)[C@H](O)CO2)C1)C(=O)c1ccccc1C3=O [amrubicin, (+)-(7S,9S)-9-acetyl-9-amino-7-[(2-deoxy-β-D-erythro-pentopyranosyl)oxy]-7,8,9,10-tetrahydro-6,11-dihydroxy-5,12-naphthacenedione] | sufficiently stabilize a cleavable complex |  |  |  |  |  |  | cardiotoxicity [2]: far less than that of doxorubicin
CC(=O)[C@]1(N)Cc2c(O)c3c(c(O)c2[C@@H](O[C@H]2C[C@H](O)[C@H](O)CO2)C1)C(=O)c1ccccc1C3=O [Amrubicin hydrochloride, (+)-(7S,9S)-9-acetyl-9-amino-7-[(2-deoxy-β-D-erythro-pentopyranosyl)oxy]-7,8,9,10-tetrahydro-6,11-dihydroxy-5,12-naphthacenedione] |  | 7.542 µg/mL | marked synergistic effects | cardiotoxicity is not presented |  |  |  | CI value (Combination Index) [3, 10]: 0.17; D1 (concentration of test agent in combination required for fa) [3, 10]: 1.267 µg/mL; combination effect with Herceptin judged from CI value [3, 10]: synergistic effect
COc1cccc2c1C(=O)c1c(O)c3c(c(O)c1C2=O)C[C@@](O)(C(=O)CO)C[C@@H]3O[C@H]1C[C@H](N)[C@H](O)[C@H](C)O1 [Doxorubicin hydrochloride, reference compound] |  | 0.434 µg/mL |  | cardiotoxicity is strongly presented | 0.92 | 0.373 µg/mL | additive effect | 
COc1cccc2c1C(=O)c1c(O)c3c(c(O)c1C2=O)C[C@@](O)(C(=O)CO)C[C@@H]3O[C@H]1C[C@H](N)[C@H](O)[C@H](C)O1 [doxorubicin] | does not stabilize the cleavable complex |  |  |  |  |  |  | cardiotoxicity in combination with Herceptin [5]: cardiotoxicity is developed at a high frequency; combination effect with Herceptin [6]: additive effects; histopathological observation of the heart [7]: vacuolation of myocardial cells; intercalation activity [8]: about ten times stronger than those of amrubicin and amrubicinol
CC(O)[C@]1(N)Cc2c(O)c3c(c(O)c2[C@@H](O[C@H]2C[C@H](O)[C@H](O)CO2)C1)C(=O)c1ccccc1C3=O.Cl (stereo partly drawn) [Amrubicinol hydrochloride] |  | 0.671 µg/mL | marked synergistic effects |  | 0.38 | 0.239 µg/mL | synergistic effect | CI value (Combination Index) [3, 13]: 0.33; D1 (concentration of test agent in combination required for fa) [3, 13]: 0.212 µg/mL; CI value (Combination Index) [3, 14]: 0.42; D1 (concentration of test agent in combination required for fa) [3, 14]: 0.279 µg/mL; combination effect with Herceptin judged from CI value ([3]; dosage ratio in the range of 2:1-8:1, fa 0.9, BT-474): synergistic effect
CC(O)[C@]1(N)Cc2c(O)c3c(c(O)c2[C@@H](O[C@H]2C[C@H](O)[C@H](O)CO2)C1)C(=O)c1ccccc1C3=O (stereo partly drawn) [amrubicinol] | sufficiently stabilize a cleavable complex |  |  |  |  |  |  | anti-cancer activity of metabolite compared with amrubicin [9]: stronger anti-cancer activity

Reference: patent US9139658B2, “Medicament for treatment cancer” (SUMITOMO DAINIPPON PHARMA CO., LTD., priority 2000, dated 2015)
